Measured values reported in publication PMC12606464, “Investigating NFE2L1 activators for targeted protein aggregate clearance: a follow-up study” (RSC Medicinal Chemistry, 2025).
Read-outs that look alike come from different tables or passages of the source.

Assays:
[1] = system: NFE2L1-dependent gene expression; test: Quantitative RT-PCR of NFE2L1-dependent genes in HEK293 cells; format: cell-based, human; details: 7.5 μM, 16 h; for DNAJA1 mRNA, geometric mean (treatment) / HSPA1A mRNA, geometric mean (treatment) / NQO1 mRNA, geometric mean (treatment) / PSMC4 mRNA, geometric mean (treatment) / PSMD12 mRNA, geometric mean (treatment) / SQSTM1 mRNA, geometric mean (treatment): HEK293, normalized to RPLP0, DMSO control = 1; for DNAJA1 mRNA, geometric mean of ratios / HSPA1A mRNA, geometric mean of ratios / NQO1 mRNA, geometric mean of ratios / PSMC4 mRNA, geometric mean of ratios / PSMD12 mRNA, geometric mean of ratios / SQSTM1 mRNA, geometric mean of ratios: treatment/control, ratio paired t test, HEK293
Method: NFE2L1 enhances the transcription of genes encoding proteasome subunits and molecular chaperones such as heat shock proteins (HSPs). To evaluate whether this effect is elicited by RUN compounds, we performed quantitative real-time PCR (RT-qPCR) analysis in HEK293 cells treated with selected RUN compounds (Fig. 2A).[28,53–55]
Fig. 2 (A) qPCRs of HEK293 cells treated with RUN compounds (7.5 μM) for 16 hours. The extracted RNA was reverse transcribed into cDNA and utilized for RT-qPCR (primers are listed in the SI, Table S1); the mRNA levels of RPLP0 were used for normalization. The experiment was performed in three biological replicates (n = 3). (B) Immunoblot analysis of proteins NFE2L1/TCF11/NRF1, SQSTM1/p62, LC3, NQO1 and HSPA1A/HSP70-1 in HEK293 cells after 16 h treatment with 7.5 μM RUN compounds. The protein levels were quantified by measuring the integrated fluorescence of the corresponding protein bands and normalized to the β-actin load. The full-length (F) and cleaved (C) forms of NFE2L1 were analyzed together. The experiment was performed in four biological replicates (n = 4) except for NFE2L1 (n = 3). (A and B) Results of RUN compounds were compared to the DMSO control using ratio paired t-tests corrected for multiple comparisons with Holm–Šídák's method (α = 0.05). *p < 0.05, **p < 0.01. Detailed results of the analysis are shown in SI Tables S5 and S6. […]
HEK-293 cells were seeded into 12 -well plates and allowed to adhere overnight under standard culture conditions. On the following day, cells were treated with the indicated test compounds or DMSO vehicle control for 16 h. After treatment, cells were lysed directly in the wells, and the resulting lysates were collected for downstream RNA extraction. RNA was extracted using the RNeasy® Plus Micro Kit according to the manufacturer’s instructions. Complementary DNA (cDNA) was synthesized from RNA using either t he TATAA GrandScript cDNA Supermix (TATAA Biocenter) or the QuantiTect® Reverse Transcription Kit (Qiagen), following the respective protocols. Quantitative RT -PCR was performed on a LightCycler® 480 instrument (Roche Life Science) using the TATAA SYBR® Gr andMaster® Mix (TATAA […]
(§1) Biocenter). Gene expression levels were normalized to RPLP0, and relative expression was calculated using the ΔΔCt method. Data were expressed as fold change relative to the corresponding DMSO control. Statistical analysis of changes in gene expression was performed w ith a ratio paired t-test corrected for multiple comparisons using Holm-Šídák's method (α = 0.05) in GraphPad Prism (v 10.6.1).
(§2) Table S1. Sequences of primer pairs used in the qRT -PCR analysis of gene expression.

[2] = system: ubiquitin-proteasome system; test: Ub-G76V-GFP reporter degradation in U2OS cells; format: cell-based; details: U2OS cells, Fig. S3
Text: We next examined whether the selected RUN compounds activate the NFE2L1 pathway in a stress-independent manner, while preserving normal ubiquitin-dependent proteasomal degradation. This distinction is crucial, as the therapeutic benefit of NFE2L1 activation lies in its ability to alleviate proteotoxic stress and target disease-related proteins for degradation without compromising normal proteostasis. To assess this, U2OS cells stably expressing the short-lived fluorescent reporter Ub-G76V-GFP were treated with various concentrations of RUN compounds. […] We also examined whether compound-induced activation of NFE2L1 could be attributed to the generation of reactive oxygen species (ROS). To test this, the 3×PSMA4-ARE-LUC reporter assay was performed in the presence or absence of the antioxidant N-acetyl-L-cysteine (NAC). A decrease in reporter activity upon NAC treatment would indicate pathway activation through oxidative stress.
RUN compound (5 µM) for 8 hours. Fluorescence intensity was normalized to cell viability (measured by the alamarBlue assay) and compared to vehicle control (DMSO). Unlike the […]
as means ± SD from three independent experiments (n = 3). Statistical analysis was performed using a multiple unpaired t-test with Welch’s correction, with adjustment for multiple comparisons by the Holm–Šídák method (α = 0.05). ****p<0.0001. Detailed results of the analysis are shown in Supplementary Table S14. […]
2.4 Monitoring protein degradation using UbG76V-GFP reporter cells
U2OS cells stably expressing the Ub-G76V-GFP reporter were seeded into 96-well plates at and cultured overnight under standard conditions. On the following day, cells were treated with the indicated test compounds or DMSO vehicle control for 8 hours. After treatment, GFP fluorescence intensity was measured, providing a readout of proteasome-dependent degradation of the Ub-G76V-GFP substrate. Cell viability was then assessed in the same wells using the alamarBlue assay according to the manufacturer’s protocol. Viability values were used for normalization of fluorescence data to account for differences in cell number. Accumulation of GFP signal relative to DMSO-treated controls was interpreted as reduced degradation of UPS substrates, indicating potential effects of the compounds on the natural protein turnover.
Statistical comparison of RUN compounds with ASC-JM17 was performed using a multiple unpaired t-test with Welch’s correction, with adjustment for multiple comparisons by the Holm–Šídák method (α = 0.05) in GraphPad Prism (v 10.6.1). […]
RNA was extracted using […]
the RNeasy® Plus Micro Kit according to the manufacturer’s instructions. Complementary DNA (cDNA) was synthesized from RNA using either t he TATAA GrandScript cDNA Supermix (TATAA Biocenter) or the QuantiTect® Reverse Transcription Kit (Qiagen), following the respective protocols. Quantitative RT -PCR was performed on a LightCycler® 480 instrument (Roche Life Science) using the TATAA SYBR® Gr andMaster® Mix (TATAA […]
as §1, §2

SNCA-EGFP = SNCA-EGFP degradation in SH-SY5Y cells; format: cell-based, human
Method: This reporter is prone to aggregation because of its slow protein turnover. To assess compound efficacy, we measured the fluorescence signal of GFP-tagged synuclein within aggregates.
The GFP fluorescence signal was then normalized to that of the DMSO control and the cell number. The experiment was performed in at least five biological replicates. Statistical analysis was performed using paired t-tests with Holm–Šídák correction for multiple comparisons (α = […]
SH-SY5Y cells stably expressing SNCA-EGFP were seeded on a plate and allowed to […]
tadalafil (5 µM), or RUN compounds at a concentration of 1 µM or treated with an equivalent volume of DMSO dissolved in buffer as a vehicle control. The treatment was performed for 16 hours and then fluorescence was measured. The GFP signal intensity was normalized to both the DMSO control and the cell count.

[3] = SH-SY5Y, SNCA-EGFP degron, Figure S7

Row | SMILES | DNAJA1 mRNA, geometric mean (treatment) [1] | HSPA1A mRNA, geometric mean (treatment) [1] | NQO1 mRNA, geometric mean (treatment) [1] | PSMC4 mRNA, geometric mean (treatment) [1] | PSMD12 mRNA, geometric mean (treatment) [1] | SQSTM1 mRNA, geometric mean (treatment) [1] | DNAJA1 mRNA, geometric mean of ratios [1] | HSPA1A mRNA, geometric mean of ratios [1] | NQO1 mRNA, geometric mean of ratios [1] | PSMC4 mRNA, geometric mean of ratios [1] | PSMD12 mRNA, geometric mean of ratios [1] | SQSTM1 mRNA, geometric mean of ratios [1] | Ub-G76V-GFP reporter assay, mean [2] | Geometric mean of ratios (paired t tests, Treatment vs Control = 100) (SNCA-EGFP) | Geometric mean, Treatment (Control = 100) (SNCA-EGFP; [3]) | Geometric mean of ratios (paired t tests, Treatment vs Control = 100) (SNCA-EGFP; [3])
1 | COc1ccc(/C=C2\CC(NC(=O)C3CCCC3)C/C(=C\c3ccc(OC)c(OC)c3)C2=O)cc1OC (centres unmarked) [RUN-89] | 7.60 | 8.85 | 2.73 | 2.21 | 5.14 | 5.22 | 7.60 | 8.85 | 2.73 | 2.21 | 5.14 | 5.22 | 1.17 | -11.61 | 88.39 | 
2 | COc1ccc(/C=C2\CC(N)C/C(=C\c3ccc(OC)c(OC)c3)C2=O)cc1OC (centres unmarked) [RUN-81] | 3.68 | 8.57 | 2.23 | 4.76 | 3.37 | 4.15 | 3.68 | 8.57 | 2.23 | 4.76 | 3.37 | 4.15 | 1.14 |  | 88.47 | -11.53
3 | COc1ccc(/C=C2\CC(NC(=O)c3ccccn3)C/C(=C\c3ccc(OC)c(OC)c3)C2=O)cc1OC (centres unmarked) [RUN-94] | 6.57 |  | 2.85 | 1.37 | 4.22 | 6.10 | 6.57 | 8.20 | 2.85 | 1.37 | 4.22 | 6.10 | 1.19 |  | 92.33 | -7.67
